According to article PMC6348444, “New Water-Soluble Copper(II) Complexes with Morpholine–Thiosemicarbazone Hybrids: Insights into the Anticancer and Antibacterial Mode of Action” (Journal of Medicinal Chemistry, 2018):

How the values were obtained:
mouse R2 RNR protein = target: T1, mouse R2 RNR protein (Mus musculus, UniProt P11157); assay: Tyrosyl radical reduction in R2 RNR protein by EPR; assay type: biochemical; conditions: 1:1 protein-to-compound ratio, 298 K, presence of DTT, within 90 s
T1 construct: made in house; host or cells: Escherichia coli
T1 sequence (P11157 1-390): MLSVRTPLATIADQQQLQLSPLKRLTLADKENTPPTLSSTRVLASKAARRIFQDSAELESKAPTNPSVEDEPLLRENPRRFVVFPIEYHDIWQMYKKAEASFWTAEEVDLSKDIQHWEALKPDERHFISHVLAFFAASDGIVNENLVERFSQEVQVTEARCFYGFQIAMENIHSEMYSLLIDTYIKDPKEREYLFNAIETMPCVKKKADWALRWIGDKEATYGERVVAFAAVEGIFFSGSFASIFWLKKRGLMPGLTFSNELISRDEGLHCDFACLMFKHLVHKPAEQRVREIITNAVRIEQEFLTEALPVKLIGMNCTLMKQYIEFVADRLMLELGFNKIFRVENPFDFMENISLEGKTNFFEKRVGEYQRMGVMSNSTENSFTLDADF
Procedure: The effects of the most cytotoxic complexes 2 and 5, and the corresponding proligands HL^2 and HL^5, on the mouse R2 tyrosyl radical were investigated by EPR spectroscopy at 30 K. The proligands and their Cu(II) complexes were incubated with the mouse R2 RNR protein at 1:1 protein-to-compound mole ratio at 298 K in the presence or absence of the reducing agent dithiothreitol (DTT), and the time-dependent reduction of the tyrosyl radical was monitored.[39] Tyrosyl radical reduction by the investigated compounds was observed only in the presence of DTT. Upon incubation with HL^2, HL^5, and 2, 5, 50% of tyrosyl radical was reduced within 90 s, after which no further reduction was observed (Figure S15). […] HL^2 and HL^5 (λmax = 312 and 320 nm, respectively) readily reacted with FeSO4·7H2O affording Fe(II) bis-ligand complexes (λmax = 373, 610 nm and λmax = 385, 645 nm, respectively) at both 1:1 and 1:2 Fe-to-ligand mole ratios. […]
The 9.4 GHz EPR spectra were recorded at 30 K on a Bruker EleXsys II E540 EPR spectrometer with an Oxford Instruments ESR900 helium cryostat, essentially as described previously.[51] […]

Solubility in water = assay type: physicochemical; conditions: sterile water stock solutions
Procedure: Human ovarian carcinoma cells A2780 and A2780cisR and human embryonic kidney HEK293 were obtained from ATCC. A2780 and A2780cisR cells were cultured in RPMI 1640 medium containing 10% FBS. HEK293 were cultured in DMEM medium containing 10% FBS. All cells were grown in tissue culture 25 cm^2 flasks (BD Biosciences, Singapore) at 37 °C in a humidified atmosphere of 95% air and 5% CO2. All drug stock solutions were prepared in sterile water. The amount of Cu was determined by ICP–OES.

[1] = Cyclic voltammetry, redox potentials; assay type: physicochemical; conditions: first reduction step
Procedure: To assess the redox properties of 1-6, detailed electrochemical and spectroscopic studies in various solvents were performed using cyclic voltammetry as well as EPR-spectroelectrochemistry. Additionally, the UV-vis spectra of 1-5 were measured (Figure S8). […] The second reduction step occurred at -1.8 V versus Fc^+/Fc (-1.16 V vs NHE) and was less reversible, indicating a ligand-based reduction. […] In aqueous solutions, the reduction potentials shifted to the less negative values, and reduction was less reversible as shown for 2 in Figure S10. […] Cyclic voltammetric experiments were performed as described previously.[46] The cyclic voltammograms were measured in the cathodic region in different solvents (DMSO, methanol, DMSO/H2O). The analytical purity grade LiClO4 (Sigma-Aldrich) and distilled and deionized water were used for preparation of 1 mM aqueous solutions of the investigated complexes 1-6. EPR spectra were recorded with the EMX plus. In situ UV-vis-NIR spectroelectrochemical measurements were performed on a spectrometer (Avantes, Model AvaSpec-2048x14-USB2 in the spectroelectrochemical cell kit ([…]3)) with the Pt-microstructured honeycomb working electrode, purchased from Pine Research Instrumentation. The cell was positioned in the CUV-UV Cuvette Holder (Ocean Optics) connected to the diode-array UV-vis-NIR spectrometer by optical fibers. UV-vis-NIR spectra were processed using the AvaSoft 7.7 software package. Halogen and deuterium lamps were used as light sources (Avantes, Model AvaLight-DH-S-BAL). The in situ EPR spectroelectrochemical experiments were carried out under an argon atmosphere in the EPR flat cell equipped with a large platinum mesh working electrode. The freshly prepared solutions were carefully purged with argon and the electrolytic cell was polarized in the galvanostatic mode directly in the cylindrical EPR cavity TM-110 (ER 4103 TM), and the EPR spectra were measured in situ.

[2] = test system: Staphylococcus aureus CECT 86 (ATCC 12600); assay: MIC microdilution, S. aureus; assay type: cell-based; conditions: planktonic cells; for S. aureus MIC50: growth inhibited at 50%; for S. aureus MIC100: lowest concentration completely inhibiting growth
Procedure: (§1) Wild-type P. aeruginosa PAO1 strain CECT 4122 (ATCC 15692) and S. aureus CECT 86 (ATCC 12600) were obtained from the Spanish Type Culture Collection (CECT). All strains were routinely cultivated in TSB medium (Sharlab, Spain) at 37 °C. MIC assays were determined by the microdilution method using TSB broth following the method described by the Clinical and Laboratory standards Institute.[94] In brief, compounds were diluted in a 96-well microtiter plate (tissue culture-treated polystyrene; […]

[3] = n-octanol/water distribution coefficient, shake-flask; assay type: physicochemical; conditions: n-octanol/buffered aqueous solution, pH 7.40, UV-vis
Procedure: The titrations were carried out under a nitrogen atmosphere.

[4] = test system: Pseudomonas aeruginosa PAO1 CECT 4122 (ATCC 15692); assay: MIC microdilution, P. aeruginosa; assay type: cell-based; conditions: planktonic cells; for P. aeruginosa MIC50: growth inhibited at 50%; for P. aeruginosa MIC100: lowest concentration completely inhibiting growth
Procedure: as §1

Structure (SMILES): CN(C)C(=NN=Cc1ccc(CN2CCOCC2)cn1)[S][Cu][Cl] [complex 2, [Cu(L^2)Cl]]
- tyrosyl radical reduced (mouse R2 RNR protein): 50%
- solubility in water (Solubility in water): ≤ 2000 µM
- E1/2 Red1 (DMSO) vs Fc+/Fc ([1]; vs Fc+/Fc): –0.80 V
- E1/2 Red1 (DMSO) vs NHE ([1]; vs NHE (in brackets)): –0.16 V
- E1/2 Red1 (H2O) vs Fc+/Fc ([1]; H2O, vs Fc+/Fc): –0.52 V
- E1/2 Red1 (H2O) vs NHE ([1]; H2O, vs NHE (in brackets)): +0.12 V
- E1/2 Red1 (MeOH) vs Fc+/Fc ([1]; vs Fc+/Fc): –0.54 V
- E1/2 Red1 (MeOH) vs NHE ([1]; vs NHE (in brackets)): +0.10 V
- S. aureus MIC50 [2]: 2 µg/mL
- S. aureus MIC100 [2]: 10 µg/mL
- log D7.4 [3]: +0.30 ± 0.01
- P. aeruginosa MIC50 [4]: 70 µg/mL
- P. aeruginosa MIC100 [4]: 200 µg/mL

Structure (SMILES): [Cl][Cu][S]C(=NN=Cc1ccc(CN2CCOCC2)cn1)Nc1ccccc1 [complex 5, [Cu(L^5)Cl]]
- tyrosyl radical reduced (mouse R2 RNR protein): 50%
- solubility in water (Solubility in water): ≤ 2000 µM
- E1/2 Red1 (DMSO) vs Fc+/Fc ([1]; vs Fc+/Fc): –0.77 V
- E1/2 Red1 (DMSO) vs NHE ([1]; vs NHE (in brackets)): –0.13 V
- E1/2 Red1 (MeOH) vs Fc+/Fc ([1]; vs Fc+/Fc): –0.48 V
- E1/2 Red1 (MeOH) vs NHE ([1]; vs NHE (in brackets)): +0.16 V
- S. aureus MIC50 [2]: 3 µg/mL
- S. aureus MIC100 [2]: 10 µg/mL
- log D7.4 [3]: +1.49 ± 0.06
- P. aeruginosa MIC50 [4]: 200 µg/mL
- P. aeruginosa MIC100 [4]: 450 µg/mL
